Consider 22 compounds from US9315475B2 (MERCK SHARP & DOHME CORP., priority 2011, dated 2016).

The first experiment addresses T1, wildtype HIV-1 protease (Human immunodeficiency virus type 1 group M subtype B, UniProt P04585).
T1 construct: the wildtype HIV-1 protease (which was expressed in Escherichia coli); made in house; host or cells: Escherichia coli
Put plainly: Assay for inhibition of microbial expressed HIV protease (Pepcleav). To be noted: Pepcleav (nM), wild type HIV-1 protease expressed in E. coli, peptide substrate, pH 5.5; mean of at least two independent experiments. Type of experiment: biochemical. As for the experimental part:
Assay for Inhibition of Microbial Expressed HIV Protease (“Pepcleav”)
Studies of the inhibition of the wildtype HIV-1 protease (which was expressed in Escherichia coli) were carried out with a peptide substrate [Val-Ser-Gln-Asn-(βnaphthyl)Ala-Pro-Ile-Val (SEQ ID NO:1)]. The inhibitor is first preincubated with the HIV-1 protease (wild type) enzyme in assay buffer (50 mM sodium acetate, pH 5.5, 100 mM NaCl, and 0.1% BSA) for 30 minutes at room temperature. Substrate is added to 400 micromolar in a total volume of 20 microliters containing 20 picomolar HIV-1 protease (final) and the reaction is incubated for 1 hour at 30° C. The reaction is quenched with the addition of formic acid and indinavir to 0.012% and 150 nM final concentrations, respectively. The product formation is determined after separation of product and substrate on a Zorbax Eclipse XDB-C 18 column connected to an API 4000 mass spectrometer (Applied Biosystems) with multiple reaction monitoring (transitions were 644.5/428.9 and 615.4/422.2 (M1/M3) for product and indinavir respectively). The extent of inhibition of the reaction is determined from the peak area of the products.
Compound `COC(=O)N[C@H](C(=O)Nc1ccccc1CC[C@@H]1CN[C@H](CNC(=O)Oc2ccccc2)CO1)C(c1ccccc1)c1ccccc1` [Example 51, Nα-(methoxycarbonyl)-N-(2-{2-[(2R,5R)-5-{[(phenoxycarbonyl)amino]methyl}morpholin-2-yl]ethyl}phenyl)-β-phenyl-L-phenylalaninamide] showed an IC50 of 38 nM.

Still in this experiment, the particulars now being: wild type HIV-1 protease expressed in E. coli, peptide substrate, pH 5.5; mean of at least two independent experiments; read-out: Pepcleav.
In the case of `COC(=O)N[C@H](C(=O)Nc1c(CC[C@@H]2CN[C@H](COC(=O)NCC(F)(F)F)CO2)ccnc1OC)C(c1ccccc1)c1ccccc1` [Example 35, Nα-(methoxycarbonyl)-N-(2-methoxy-4-{2-[(2R,5S)-5-({[(2,2,2-trifluoroethyl)carbamoyl]oxy}methyl)morpholin-2-yl]ethyl}pyridin-3-yl)-β-phenyl-L-phenylalaninamide], the IC50 came to 60 nM.
Regarding `COC(=O)N[C@H](C(=O)Nc1cncnc1CC[C@@H]1CN[C@H](COC(=O)NCc2ccc(F)cc2)CO1)C(c1ccccc1)c1ccccc1` [Example 36, N-(4-{2-[(2R,5S)-5-({[(4-fluorobenzyl)carbamoyl]oxy}methyl)morpholin-2-yl]ethyl}pyrimidin-5-yl)-Nα-(methoxycarbonyl)-β-phenyl-L-phenylalaninamide], the IC50 was 24 nM.
For `COC(=O)N[C@H](C(=O)Nc1cncnc1CC[C@@H]1CN[C@H](COC(=O)NCC(F)(F)F)CO1)C(c1ccccc1)c1ccccc1` [Example 37, Nα-(methoxycarbonyl)-β-phenyl-N-(4-{2-[(2R,5S)-5-({[(2,2,2-trifluoroethyl)carbamoyl]oxy}methyl)morpholin-2-yl]ethyl}pyrimidin-5-yl)-L-phenylalaninamide], the IC50 was determined as 180 nM.
Same read-out and setting: for `COC(=O)N[C@H](C(=O)Nc1c(CC[C@@H]2CN[C@H](COC(=O)NCc3ccc(F)cc3)CO2)cc[nH]c1=O)C(c1ccccc1)c1ccccc1` [Example 38, N-(4-{2-[(2R,5S)-5-({[(4-fluorobenzyl)carbamoyl]oxy}methyl)morpholin-2-yl]ethyl}-2-oxo-1,2-dihydropyridin-3-yl)-Nα-(methoxycarbonyl)-β-phenyl-L-phenylalaninamide] the value was 0.6 nM; for `COC(=O)N[C@H](C(=O)Nc1c(CC[C@@H]2CN[C@H](COC(=O)NCC(F)(F)F)CO2)cc[nH]c1=O)C(c1ccccc1)c1ccccc1` [Example 39, Nα-(methoxycarbonyl)-N-(2-oxo-4-{2-[(2R,5S)-5-({[(2,2,2-trifluoroethyl)carbamoyl]oxy}methyl)morpholin-2-yl]ethyl}-1,2-dihydropyridin-3-yl)-β-phenyl-L-phenylalaninamide], 2.3 nM; for `COC(=O)N[C@H](C(=O)Nc1ccccc1CC[C@@H]1CN[C@H](CNC(=O)Nc2ccccc2)CO1)C(c1ccccc1)c1ccccc1` [Example 40, N-α-(methoxycarbonyl)-β-phenyl-N-(2-{2-[(2R,5R)-5-{[(phenylcarbamoyl)amino]methyl}morpholin-2-yl]ethyl}phenyl)-L-phenylalaninamide], 52 nM.
As to `COC(=O)N[C@H](C(=O)Nc1ccccc1CC[C@@H]1CN[C@H](CNC(=O)Nc2cccnn2)CO1)C(c1ccccc1)c1ccccc1` [Example 41, methyl N-[(1S)-1-benzhydryl-2-oxo-2-[[2-[2-[(2R,5R)-5-[(pyridazin-3-ylcarbamoyl-amino)methyl]morpholin-2-yl]ethyl]phenyl]amino]ethyl] carbamate], the IC50 was determined as 2.9 nM.
Same read-out and setting: for `COC(=O)N[C@H](C(=O)Nc1ccccc1CC[C@@H]1CN[C@H](CNC(=O)Nc2ccccn2)CO1)C(c1ccccc1)c1ccccc1` [Example 42, methyl N-[(1S)-1-benzhydryl-2-oxo-2-[[2-[2-[(2R,5R)-5-[(2-pyridylcarbamoylamino)methyl]morpholin-2-yl]ethyl]phenyl]amino]ethyl]carbamate] the value was 17 nM; for `COC(=O)N[C@H](C(=O)Nc1ccccc1CC[C@@H]1CN[C@H](CNC(=O)Nc2cc[nH]n2)CO1)C(c1ccccc1)c1ccccc1` [Example 43, methyl N-[(1S)-1-benzhydryl-2-oxo-2-[[2-[2-[(2R,5R)-5-[(1H-pyrazol-3-ylcarbamoylamino)methyl]morpholin-2-yl]ethyl]phenyl]amino]ethyl]carbamate], 96 nM; for `COC(=O)N[C@H](C(=O)Nc1ccccc1CC[C@@H]1CN[C@H](CNS(=O)(=O)c2ccccc2)CO1)C(c1ccccc1)c1ccccc1` [Example 44, Nα-(methoxycarbonyl)-β-phenyl-N-(2-{2-[(2R,5R)-5-{[(phenylsulfonyl)amino]methyl}morpholin-2-yl]ethyl}phenyl)-L-phenylalaninamide], 26 nM.
On the same count and under the same terms, for `COC(=O)N[C@H](C(=O)Nc1ccccc1CC[C@@H]1CN[C@H](CNS(=O)(=O)c2ccc3cnnn3c2)CO1)C(c1ccccc1)c1ccccc1` [Example 45, methyl N-[(1S)-1-benzhydryl-2-oxo-2-[[2-[2-[(2R,5R)-5-[(triazolo[1,5-a]pyridin-6-ylsulfonylamino)methyl]morpholin-2-yl]ethyl]phenyl]amino]ethyl]carbamate] the value was 21 nM.
Turning to `COC(=O)N[C@H](C(=O)Nc1ccccc1CC[C@@H]1CN[C@H](CNS(=O)(=O)c2cccc(C(F)(F)F)n2)CO1)C(c1ccccc1)c1ccccc1` [Example 46, methyl N-[(1S)-1-benzhydryl-2-oxo-2-[[2-[2-[(2R,5R)-5-[[[6-(trifluoromethyl)-2-pyridyl]sulfonylamino]methyl]morpholin-2-yl]ethyl]phenyl]amino]ethyl]carbamate], the IC50 turned out to be 50 nM.
Same read-out and setting: with `COC(=O)N[C@H](C(=O)Nc1ccccc1CC[C@@H]1CN[C@H](CNS(=O)(=O)C2CC2)CO1)C(c1ccccc1)c1ccccc1` [Example 47, methyl N-[(1S)-1-benzhydryl-2-[[2-[2-[(2R,5R)-5-[(cyclopropyl-sulfonylamino)methyl]morpholin-2-yl]ethyl]phenyl]amino]-2-oxo-ethyl]carbamate] the figure was 84 nM.
On to `COC(=O)N[C@H](C(=O)Nc1ccccc1CC[C@@H]1CN[C@H](CNS(=O)(=O)c2ccccn2)CO1)C(c1ccccc1)c1ccccc1` [Example 48, methyl N-[(1S)-1-benzhydryl-2-oxo-2-[[2-[2-[(2R,5R)-5-[(2-pyridylsulfonylamino)methyl]morpholin-2-yl]ethyl]phenyl]amino]ethyl]carbamate], for which the IC50 stood at 91 nM.
For the compound `COC(=O)N[C@H](C(=O)Nc1ccccc1CC[C@@H]1CN[C@H](CNS(=O)(=O)c2ccc(N)cc2)CO1)C(c1ccccc1)c1ccccc1` [Example 49, N-(2-{2-[(2R,5R)-5-({[(4-aminophenyl)sulfonyl]amino}methyl)morpholin-2-yl]ethyl}phenyl)-Nα-(methoxy-carbonyl)-β-phenyl-L-phenylalaninamide], the IC50 is 94 nM.
Regarding `COC(=O)N[C@H](C(=O)Nc1ccccc1CC[C@@H]1CN[C@H](CNS(=O)(=O)Cc2ccccc2)CO1)C(c1ccccc1)c1ccccc1` [Example 50, N-(2-{2-[(2R,5R)-5-{[(benzylsulfonyl)amino]methyl}morpholin-2-yl]ethyl}phenyl)-Nα-(methoxycarbonyl)-β-phenyl-L-phenylalaninamide], the IC50 turned out to be 49 nM.
Consider `COC(=O)N[C@H](C(=O)Nc1ccccc1CC[C@@H]1CN[C@H](CNC(=O)c2ccccc2)CO1)C(c1ccccc1)c1ccccc1` [Example 52, Nα-(methoxycarbonyl)-β-phenyl-N-(2-{2-[(2R,5R)-5-{[(phenylcarbonyl)amino]methyl}morpholin-2-yl]ethyl}phenyl)-L-phenylalaninamide], for which the IC50 turned out to be 96 nM.
Same read-out and setting: for `COC(=O)N[C@H](C(=O)Nc1ccccc1CC[C@@H]1CN[C@H](CNC(=O)Cc2ccccc2)CO1)C(c1ccccc1)c1ccccc1` [Example 53, Nα-(methoxycarbonyl)-β-phenyl-N-(2-{2-[(2R,5R)-5-{[(phenylacetyl)amino]methyl}morpholin-2-yl]ethyl}phenyl)-L-phenylalaninamide] the value was 12 nM; for `COC(=O)N[C@H](C(=O)Nc1ccccc1CC[C@@H]1CN[C@H](CNC(=O)c2cccnn2)CO1)C(c1ccccc1)c1ccccc1` [Example 54, methyl N-[(1S)-1-benzhydryl-2-oxo-2-[[2-[2-[(2R,5R)-5-[(pyridazine-3-carbonyl-amino)methyl]morpholin-2-yl]ethyl]phenyl]amino]ethyl] carbamate], 26 nM; for `COC(=O)N[C@H](C(=O)Nc1ccccc1CC[C@@H]1CN[C@H](CNC(=O)c2ccccc2Cl)CO1)C(c1ccccc1)c1ccccc1` [Example 55, methyl N-[(1S)-1-benzhydryl-2-[[2-[2-[(2R,5R)-5-[[(2-chloro-benzoyl)amino]methyl]morpholin-2-yl]ethyl]phenyl]amino]-2-oxo-ethyl]carbamate], 30 nM.
Regarding `COC(=O)N[C@H](C(=O)Nc1ccccc1CC[C@@H]1CN[C@H](CNC(=O)c2cc3ccccc3[nH]2)CO1)C(c1ccccc1)c1ccccc1` [Example 56, methyl N-[(1S)-1-benzhydryl-2-[[2-[2-[(2R,5R)-5-[(1H-indole-2-carbonylamino)methyl]morpholin-2-yl]ethyl]phenyl]amino]-2-oxo-ethyl]carbamate], the IC50 turned out to be 34 nM.
